In one experiment the test system is dopaminergic receptor. As to the kind of experiment: Anti-apomorphine activity in mouse. Particulars: for ED50: Mus musculus, po, 1 h, read-out: Anti-apomorphine activity (ED50 mg/kg) (A); for (B)/(A): ratio of anti-epinephrine ED50 (B) to anti-apomorphine ED50 (A).
The next experiment deals with α-blocking activity. The experiment is described as follows: Anti-epinephrine lethal activity in mouse. It is filed as in vivo. The settings on record: read-out: Anti-epinephrine activity (ED50 mg/kg) (B).
The mark [1] stands for this setting: mouse, oral, 1 hour before lethal dose (1.5 mg/kg) of epinephrine intravenously, survival at 4 hours.

The values that follow come from patent US5006528A, “Carbostyril derivatives” (Otsuka Pharmaceutical Co., Ltd., priority 1988, dated 1991).

Read-outs that look alike come from different tables or passages of the source.

In the case of `Cc1cccc(N2CCN(CCCCOc3ccc4c(c3)NC(=O)CC4)CC2)c1Br` [Test compound 4], the ED50 is 0.4 mg/kg in the experiment with dopaminergic receptor and more than 64 mg/kg with α-blocking activity (setting [1]). Moreover, the “(B)/(A)” value in the experiment on dopaminergic receptor was more than 160.

As to `CCOc1ccccc1N1CCN(CCCCOc2ccc3ccc(=O)[nH]c3c2)CC1` [Test compound 11], the ED50 in the experiment with dopaminergic receptor was determined as 0.12 mg/kg; in the experiment with α-blocking activity (setting [1]) it was 3.8 mg/kg. Moreover, the “(B)/(A)” value in the experiment with dopaminergic receptor is 31.6.

As to `O=C1CCc2ccc(OCCCCN3CCN(c4cc(Cl)cc(Cl)c4Cl)CC3)cc2N1` [Test compound 7], the ED50 was 0.4 mg/kg in the experiment with dopaminergic receptor and more than 128 mg/kg in the experiment with α-blocking activity (setting [1]). Further, in the experiment on dopaminergic receptor, the “(B)/(A)” value was more than 320.

With `O=C1CCc2ccc(OCCCCN3CCN(c4cc(Cl)cc(Cl)c4)CC3)cc2N1` [Test compound 5], the ED50 was 0.5 mg/kg in the experiment with dopaminergic receptor and more than 128 mg/kg in the experiment on α-blocking activity (setting [1]). Moreover, the “(B)/(A)” value in the experiment on dopaminergic receptor is listed as more than 256.

As to `O=C1CCc2ccc(OCCCCN3CCN(c4cccc(Cl)c4Cl)CC3)cc2N1` [Test compound 1, 7-{4-[4-(2,3-dichlorophenyl)-1-piperazinyl]butoxy}-3,4-dihydrocarbostyril], the ED50 is 0.18 mg/kg in the experiment with dopaminergic receptor and more than 128 mg/kg in the experiment on α-blocking activity (Mus musculus, po, 4 h). Further, the “(B)/(A)” value in the experiment on dopaminergic receptor is more than 711.

On to `Cc1cccc(N2CCN(CCCCOc3ccc4c(c3)NC(=O)CC4)CC2)c1Cl` [Test compound 3], for which, in the experiment on dopaminergic receptor, the ED50 was 0.4 mg/kg and the “(B)/(A)” value is more than 160. The ED50 with α-blocking activity (setting [1]) was more than 64 mg/kg.

In the case of `O=c1ccc2ccc(OCCCCN3CCN(c4cccc(Cl)c4Cl)CC3)cc2[nH]1` [Test compound 10], in the experiment with dopaminergic receptor, the ED50 was 0.36 mg/kg and the “(B)/(A)” value is recorded as more than 355. For the same compound, in the experiment with α-blocking activity (setting [1]), the ED50 was more than 128 mg/kg.

As for `Cc1c(N2CCN(CCCCOc3ccc4c(c3)NC(=O)CC4)CC2)cccc1[N+](=O)[O-]` [Test compound 2], in the experiment on dopaminergic receptor, the ED50 came to 0.3 mg/kg and the “(B)/(A)” value is reported as more than 426.7. In addition, the ED50 in the experiment on α-blocking activity (setting [1]) was more than 128 mg/kg.

In the case of `O=C1CCc2ccc(OCCCCN3CCN(c4cccc(Br)c4Br)CC3)cc2N1` [Test compound 9], in the experiment on dopaminergic receptor, the ED50 came to 0.6 mg/kg and the “(B)/(A)” value is more than 426.7. Moreover, the ED50 in the experiment with α-blocking activity (setting [1]) was more than 256 mg/kg.

Take `COc1ccccc1N1CCN(CCCCOc2ccc3c(c2)NC(=O)CC3)CC1` [Test compound 8]: in the experiment with dopaminergic receptor, the ED50 is 0.2 mg/kg and the “(B)/(A)” value was determined as 12.5. For the same compound, the ED50 in the experiment with α-blocking activity (setting [1]) stood at 2.5 mg/kg.
